US20060211606A1, “Peptides” (priority 2005, published 2006)
Where no end group is shown, it is not given here. [ ]: non-standard residue; d: D form.

Test system: Human Skeletal Muscle Myoblasts (HSMM)
Assay: HSMM proliferation, BrdU incorporation
Format: cell-based
Details: 48 hours
Protocol: (A) Peptide A5: HSMM cells at 500 cells/well. Cultivation was carried out for 24 hours in 10% FCS, followed by two washes in serum free medium, stimulation for 48 hours and then treatment with BrdU for 5 hours. Concentrations of 0.1, 1, 10, 100 and 500 ng/ml of peptide A5 were tested, along with 0.1, 1, 10 and 100 ng/ml IGF-I. BrdU incorporation was measured to assess the level of cell proliferation achieved. Controls containing medium only, no cells (BLK), background staining (BG) and 10% FBS were also provided. Values on the Y-axis are for fluorescence (absorbence at 370 nm; mean plus standard error across 4 wells). The first five columns relate to peptide A5 at concentrations of 0.1, 1, 10, 100 and 500 ng/ml. The next column relates to the control containing medium only. The next three relate to IGF-I (See Example 1.5) alone at concentrations of 100, 10 and 0.1 ng/ml. The next three relate to controls containing 10% FBS, background staining and no cells respectively. * means P<0.05 compared to medium only control.
(§1) (B) Peptide AS: HSMM cells at 500 cells/well. […] Concentrations of 0.1, 1, 10, 100 and 500 ng/ml of peptide AS in combination with 2 ng/ml IGF-I were tested, along with 0.1, 1, 10 and 100 ng/ml IGF-I. BrdU incorporation was measured to assess the level of cell proliferation achieved. […] Values on the Y-axis are for fluorescence (absorbence at 370 nm; mean plus standard error across 4 wells). […]
as §1, with “(A)” for “(B)”, “AS” for “AS in combination with 2 ng/ml IGF-I”
(B) Peptide A5: HSMM cells at 500 cells/well. […] Concentrations of 0.1, 1, 10, 100 and 500 ng/ml of peptide AS in combination with 2 ng/ml IGF-I were tested, along with 0.1, 1, 10 and 100 ng/ml IGF-I. BrdU incorporation was measured to assess the level of cell proliferation achieved. […]

Substance: A5: SEQ ID NO: 15 with D-Arginine at positions 14 and 15, amidated at the C-terminus, not pegylated (YQPPSTNKNTKSQ[dR][dR]KGSTFEEHK-NH2; N-terminus assumed; SMILES C[C@@H](O)[C@H](NC(=O)[C@H](CO)NC(=O)CNC(=O)[C@H](CCCCN)NC(=O)[C@@H](CCCNC(=N)N)NC(=O)[C@@H](CCCNC(=N)N)NC(=O)[C@H](CCC(N)=O)NC(=O)[C@H](CO)NC(=O)[C@H](CCCCN)NC(=O)[C@@H](NC(=O)[C@H](CC(N)=O)NC(=O)[C@H](CCCCN)NC(=O)[C@H](CC(N)=O)NC(=O)[C@@H](NC(=O)[C@H](CO)NC(=O)[C@@H]1CCCN1C(=O)[C@@H]1CCCN1C(=O)[C@H](CCC(N)=O)NC(=O)[C@@H](N)Cc1ccc(O)cc1)[C@@H](C)O)[C@@H](C)O)C(=O)N[C@@H](Cc1ccccc1)C(=O)N[C@@H](CCC(=O)O)C(=O)N[C@@H](CCC(=O)O)C(=O)N[C@@H](Cc1c[nH]cn1)C(=O)N[C@@H](CCCCN)C(N)=O) [Peptide A5]
- proliferation of HSMM (BrdU incorporation), with 2 ng/ml IGF-I in the medium (A5 in combination with 2 ng/ml IGF-I, P<0.001): significant effect on the proliferation of HSMM at a higher confidence level
- proliferation of HSMM (BrdU incorporation), used in isolation (A5 significant (P<0.1) at doses of 10 ng/ml and below, IGF-I alone 0.1, 10 and 100 ng/ml): significant effect
